Test results reported in patent US20050192228A1, “Tripeptide derivatives for the treatment of neurodegenerative diseases” (priority 2001, published 2005).

How the values were obtained:
Assay type in all cases: in vivo, Male Wistar rats
hippocampal arborization = experiment: Vincristine model: loss of the hippocampal arborization; details: vincristine 5 μg/kg/day
Description: Vincristine is an anticarcinogen that is used as a synchronizing agent. This molecule binds to the spindle of microtubules, thus blocking the cellular multiplication during the metaphase. It is a spindle poison. […] Vincristine binds to these neurofibrils thus causing peripheral neural conduction disorders in patients who are treated for neoplasm. These effects mainly affect the white matter of the axons. […] The repeated ICV administration of vincristine causes a degeneration of the conduction pathways with the appearance of abnormal neurofibrils similar to those observed in Alzheimer's disease. This degeneration mainly affects the periventricular structures. The hippocampi are affected through a decrease of their ramifications, while the cell bodies of the neurons are not altered. […] After this period, a protective layer forms on the glia cells that prevent the diffusion of vincristine from the CSF to the neighboring nerve cells. There is no spontaneously developing Alzheimer's disease in rats that would show the different types of degenerative lesions (beta-amyloid plaques, neurofibrillary and vacuolar degeneration). ICV administration of vincristine, which may cause neurofibrillary degeneration, may be used as a partial animal model of this disease. […]

[1] = system: glucocorticoid receptors of the hippocampus; experiment: Dexamethasone model: determination of the corticoide receptors in the hippocampus (3H-dexamethasone binding); details: for Type I receptors in Femtomol/mg protein: dexamethasone 50 mg/kg/day, hippocampi removed after the last learning session; for effect on number of receptors of hippocampus neurons (in words): dexamethasone model
Description: (§1) 40 rats were kept and operated as described above. Then, they were divided into the following groups: • one group of 10 rats which received 5 μl/day of physiological serum • one group of 30 rats which received 50 mg/kg/day dexamethasone, dissolved in physiological serum.
After the last learning session at 10.00 a.m., the rats were sacrificed by means of decapitation, and the hippocampi were quickly removed and put on a plate cooled to 0° C. The number of glucocorticoid receptors was determined by a binding method using a labeled corticoid and a specific inhibitor to the binding of the corticoid to the receptor (here a total agonist). The protein content was measured by Lowry's method.
The hippocampi of each rat were homogenized in 2 ml of sodium EDTA Glycerol molybdate buffer. The homogenate was centrifugated at 100.000 g for 60 minutes. An aliquot of the supernatant was diluted in distilled water, and the protein content was measured by Lowry's method.
The rest of the supernatant was divided into three parts of 0.2 ml each. Increasing concentrations (25, 50 and 75 nmoles/ml) of dexamethasone 3H (Amersham 50 Ci/mM) were added to these parts. Three other preparations were carried out under the same conditions, while a saturating quantity of a total […] of the receptors (RU 28362) was added to obtain a non-specific binding of the labeled dexamethasone.
After one night of incubation at 4° C., charcoal/dextran was added to absorb […] dexamethasone. After centrifugation, the radioactivity of the supernatant was measured by liquid scintillation.
The radioactive quantities of the dexamethasone bound to the protein content are recorded. Results are expressed in femtomoles of the labeled corticoid bound to the receptor per mg of proteins.

[2] = system: rats given Gp120 (Gp120 model); experiment: Gp120 model: sound avoidance conditioning (pole climbing test); details: for percentage of avoidance, Day 0 / percentage of avoidance, Day 1 / percentage of avoidance, Day 2 / percentage of avoidance, Day 3 / percentage of avoidance, Day 4: Gp120 10 nM/kg/day for 5 days; for percentage of avoidance, Day 0 / percentage of avoidance, Day 1 / percentage of avoidance, Day 2 / percentage of avoidance, Day 3 / percentage of avoidance, Day 4 / AUC (average area under the learning curve per day): treatment 10 mg/kg/day for 5 days; for percentage of avoidance, Day 0: learning Day 0; for percentage of avoidance, Day 1: learning Day 1; for percentage of avoidance, Day 2: learning Day 2; for percentage of avoidance, Day 3: learning Day 3; for percentage of avoidance, Day 4: learning Day 4; for effect on learning parameters (in words) / AUC (average area under the learning curve per day): Gp120 model; for AUC (average area under the learning curve per day): maximum value 100
Description: 40 rats were slightly anesthetized by ether, an incision was made into the skin of the skull, and the skull was pierced by means of a dental burr. A metal needle was stereotaxically directed to the lateral ventricle, and then fixed by means of dental cement. Every day of the experiment, the patency of the needle was controlled.
Three days after introducing the needle (recovery from the postoperative shock) the non-anesthetized animals were divided into 2 groups: • one group of 10 rats to which 5 μl of physiological serum was injected • one group of 30 rats to which 5 μl of physiological serum containing Gp120 in an amount of 10 nM/kg was injected
This administration was repeated every day for a period of five days.
Ten days after the last administration of Gp120, the thirty rats were randomly divided into three groups of 10 animals each: • (i) one group of 10 rats received 1 ml/kg/day of normal saline (controls) for a period of 5 days. • (ii) one group of 10 rats received 10 mg/kg/day of Cinnamoyl-Gly-L-Phe-L-PrONH2 dissolved in normal saline for a period of 5 days. • (iii) one group of 10 rats received 10 mg/kg/day of tacrine peros for a period of 5 days
(§2) During the last five days of treatment, the rats were placed under the common learning conditions of the three models between 10.00 a.m. and 11.00 a.m. (see below).
(§3) During the last five days of treatment, at 10.00 a.m. (1 hour after the administration of Cinnamoyl-Gly-Phe-PrONH2), the animals were placed into a learning cage for sound avoidance conditioning (Conditioning avoidance response). The animals learned to climb a pole first to escape from and then to avoid an electric shock. This method was standardized and quantified. (see Le Poncin M., Lafitte J. C., Rapin J. R., Sound Avoidance Conditioning and a Mathematical approach to the description of acquisition performance, Math. Biosciences 59 (1982) 242-268).
(§4) For a period of five days, the animals were placed everyday under these learning conditions for a total of ten tests a day. Results are expressed as percentage of adequate responses, and the kinetics of the responses is represented by a multi-exponential maximum curve.
(§5) The curve maximum represents the learning capacities. The slope of the curve evaluates the learning speed. The area under the curve (AUC) represents a good evaluation of all conditioning parameters. The maximum value of the area under the curve is 500, if the animals show 100% adequate responses as early as Day 0. In fact, an average area under the curve is calculated per day, what amounts to a maximum value of 100. In the absolute control animals, this average area under the curve is equal to 40+/−4.

hippocampal neurons = experiment: Gp120 model: neuronal count in the CA III layers of the hippocampus; details: percentage of the control group, treatment 10 mg/kg/day for 5 days
Description: After the last learning session, the rats were sacrificed by means of decapitation, and the brain was isolated and frozen to −80° C. with liquid nitrogen. Cuts of a thickness of 50 μm were obtained in a “cryo-cut”, and the neurons are counted in the CA III layers of the hippocampus under a microscope. The results are expressed as percentage of the control group.

[3] = system: rats given vincristine (vincristine model); experiment: Vincristine model: sound avoidance conditioning; details: for percentage of avoidance, Day 0 / percentage of avoidance, Day 1 / percentage of avoidance, Day 2 / percentage of avoidance, Day 3 / percentage of avoidance, Day 4: vincristine 5 μg/kg/day for 5 days; for percentage of avoidance, Day 0: learning Day 0; for percentage of avoidance, Day 1: learning Day 1; for percentage of avoidance, Day 2: learning Day 2; for percentage of avoidance, Day 3: learning Day 3; for percentage of avoidance, Day 4: learning Day 4; for AUC pro Tag: average area under the learning curve per day, maximum value 100
Description: Rats were kept and treated as described above in 3. Then they were divided into the following groups: • one group of 10 rats which received 5 μl/day of physiological serum over a period of 5 days • one group of 30 rats which received 5 μl/day of physiological serum containing 5 μg/kg vincristine over a period of 5 days
A dosage of 5 μg/kg/day causes a 40 to 60% loss of the hippocampal arborization.
After the last administration, the second group of 30 rats was divided at random into three sub-groups and treated as described above in 3.
as §3, §4, §5

[4] = system: rats given dexamethasone (dexamethasone model); experiment: Dexamethasone model: sound avoidance conditioning; details: for percentage of avoidance, Day 0 / percentage of avoidance, Day 1 / percentage of avoidance, Day 2 / percentage of avoidance, Day 3 / percentage of avoidance, Day 4: dexamethasone 50 mg/kg/day; for percentage of avoidance, Day 0: learning Day 0; for percentage of avoidance, Day 1: learning Day 1; for percentage of avoidance, Day 2: learning Day 2; for percentage of avoidance, Day 3: learning Day 3; for percentage of avoidance, Day 4: learning Day 4; for effect on learning capacity (in words) / AUC (average area under the learning curve per day): dexamethasone model; for AUC (average area under the learning curve per day): maximum value 100
Description: as §1, §2, §3, §4, §5

CC[C@]1(O)C[C@H]2CN(CCc3c([nH]c4ccccc34)[C@@](C(=O)OC)(c3cc4c(cc3OC)N(C=O)[C@H]3[C@@](O)(C(=O)OC)[C@H](OC(C)=O)[C@]5(CC)C=CCN6CC[C@]43[C@@H]65)C2)C1 [vincristine]
loss of the hippocampal arborization (hippocampal arborization): 40 to 60%

C[C@@H]1C[C@H]2[C@@H]3CCC4=CC(=O)C=C[C@]4(C)[C@@]3(F)[C@@H](O)C[C@]2(C)[C@@]1(O)C(=O)CO [dexamethasone]
decrease in the number of corticoide receptors in the hippocampus ([1]; dexamethasone, dosage and treatment time of this experiment): ~60%

NC(=O)[C@@H]1CCCN1C(=O)[C@H](Cc1ccccc1)NC(=O)CNC(=O)C=Cc1ccccc1 [tripeptide derivative, cinnamoyl-glycyl-L-phenylalanyl-L-prolineamide]
Type I receptors in Femtomol/mg protein [1]: **85 ± 9 Femtomol/mg protein
effect on number of receptors of hippocampus neurons (in words) [1]: significant increase of the number of receptors
percentage of avoidance, Day 0 [2]: 0%
percentage of avoidance, Day 1 [2]: 5 +/− 2%
percentage of avoidance, Day 2 [2]: **18 +/− 2%
percentage of avoidance, Day 3 [2]: **32 +/− 2%
percentage of avoidance, Day 4 [2]: **43 +/− 3%
effect on learning parameters (in words) [2]: improvement of the learning capacities
effect on learning parameters (in words) ([2]; listed as Cinnamoyl-Gly-Phe-ProNH2): partly restores the learning parameters
AUC (average area under the learning curve per day) [2]: **19.6 +/− 1.8
Percentage of hippocampal neurons (hippocampal neurons): *54 ± 3%
percentage of avoidance, Day 0 [3]: 0%
percentage of avoidance, Day 1 [3]: 5 +/− 2%
percentage of avoidance, Day 2 [3]: **20 +/− 2%
percentage of avoidance, Day 3 [3]: **45 +/− 3%
percentage of avoidance, Day 4 [3]: **53 +/− 3%
AUC pro Tag ([3]; vincristine model): **24.6 +/− 1.0
percentage of avoidance, Day 0 [4]: 0%
percentage of avoidance, Day 1 [4]: 8 +/− 3%
percentage of avoidance, Day 2 [4]: **28 +/− 3%
percentage of avoidance, Day 3 [4]: **68 +/− 3%
percentage of avoidance, Day 4 [4]: **77 +/− 3%
effect on learning capacity (in words) [4]: considerably restores the learning capacity
AUC (average area under the learning curve per day) [4]: **36.2 +/− 1.2

Nc1c2c(nc3ccccc13)CCCC2 [tacrine]
Type I receptors in Femtomol/mg protein [1]: 46 ± 5 Femtomol/mg protein
effect on number of receptors of hippocampus neurons (in words) [1]: does not show any effect
percentage of avoidance, Day 0 [2]: 0%
percentage of avoidance, Day 1 [2]: 5 +/− 2%
percentage of avoidance, Day 2 [2]: **18 +/− 2%
percentage of avoidance, Day 3 [2]: **31 +/− 3%
percentage of avoidance, Day 4 [2]: **42 +/− 4%
effect on learning parameters (in words) [2]: partly restores the learning parameters
AUC (average area under the learning curve per day) [2]: 19.4 +/− 2.2
Percentage of hippocampal neurons (hippocampal neurons): 45 ± 3%
percentage of avoidance, Day 0 [3]: 0%
percentage of avoidance, Day 1 [3]: 2 +/− 1%
percentage of avoidance, Day 2 [3]: 7 +/− 2%
percentage of avoidance, Day 3 [3]: 19 +/− 2%
percentage of avoidance, Day 4 [3]: 28 +/− 3%
effect on learning capacities (in words) ([3]; vincristine model): does not show an effect
AUC pro Tag ([3]; vincristine model): 11.2 +/− 0.8
percentage of avoidance, Day 0 [4]: 0%
percentage of avoidance, Day 1 [4]: 5 +/− 2%
percentage of avoidance, Day 2 [4]: 15 +/− 3%
percentage of avoidance, Day 3 [4]: 42 +/− 4%
percentage of avoidance, Day 4 [4]: 52 +/− 4%
effect on learning capacity (in words) [4]: does not show any effect
AUC (average area under the learning curve per day) [4]: 22.8 +/− 1.3
